In paper PMC9133015 (Nature Communications, 2022):
Where “and” joins values, the source holds several entries; their conditions need not be identical. Equal values may be shown once.

Columns and labels:
Experiment in all cases: Kinase inhibitor specificity profiling (Reaction Biology Corporation)
Format in all cases: biochemical
Parameters in all cases: % Enzyme Activity (relative to DMSO controls): concentration or dose not given beside the values
[1] = target: T1, panel of 370 protein kinases (Homo sapiens, UniProt Q9H0K1); details: 2 h, kinase SIK2; read-out: % Enzyme Activity (relative to DMSO controls)
T1 construct: purchased Reaction Biology Corporation (assay service)

[2] = target: T2, panel of 370 protein kinases (Homo sapiens, UniProt Q96PF2); details: 2 h, kinase TSSK2; read-out: % Enzyme Activity (relative to DMSO controls)
T2 construct: purchased Reaction Biology Corporation (assay service)
T2 sequence (Q96PF2 whole entry): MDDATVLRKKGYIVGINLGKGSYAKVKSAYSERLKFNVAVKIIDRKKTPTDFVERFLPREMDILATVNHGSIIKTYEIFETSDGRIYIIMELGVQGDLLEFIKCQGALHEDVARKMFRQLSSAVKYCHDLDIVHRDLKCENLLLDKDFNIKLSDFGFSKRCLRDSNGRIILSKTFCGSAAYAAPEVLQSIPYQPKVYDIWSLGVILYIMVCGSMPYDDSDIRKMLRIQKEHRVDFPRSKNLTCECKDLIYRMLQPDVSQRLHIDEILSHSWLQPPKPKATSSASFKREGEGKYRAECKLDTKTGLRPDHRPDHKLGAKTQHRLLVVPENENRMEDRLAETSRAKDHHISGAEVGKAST

[3] = target: T3, panel of 370 protein kinases (Homo sapiens, UniProt Q8IYT8); details: 2 h, kinase ULK2; read-out: % Enzyme Activity (relative to DMSO controls)
T3 construct: purchased Reaction Biology Corporation (assay service)

[4] = target: T4, panel of 370 protein kinases (Homo sapiens, UniProt P42679); details: 2 h, kinase CTK/MATK; read-out: % Enzyme Activity (relative to DMSO controls)
T4 construct: purchased Reaction Biology Corporation (assay service)
T4 sequence (P42679 whole entry): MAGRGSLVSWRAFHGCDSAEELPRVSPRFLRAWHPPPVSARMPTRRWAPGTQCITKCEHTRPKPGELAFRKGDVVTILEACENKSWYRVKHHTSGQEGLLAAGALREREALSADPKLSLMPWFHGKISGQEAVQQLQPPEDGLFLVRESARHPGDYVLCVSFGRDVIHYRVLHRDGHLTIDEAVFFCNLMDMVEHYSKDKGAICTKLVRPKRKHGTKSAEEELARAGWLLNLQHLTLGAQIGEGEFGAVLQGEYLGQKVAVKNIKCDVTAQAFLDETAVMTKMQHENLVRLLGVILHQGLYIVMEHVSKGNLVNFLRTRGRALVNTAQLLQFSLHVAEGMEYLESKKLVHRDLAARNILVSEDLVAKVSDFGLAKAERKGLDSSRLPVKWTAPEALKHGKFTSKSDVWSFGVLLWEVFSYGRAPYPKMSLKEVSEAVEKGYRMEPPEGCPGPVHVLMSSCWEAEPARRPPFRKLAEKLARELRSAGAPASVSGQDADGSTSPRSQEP

[5] = target: T5, panel of 370 protein kinases (Homo sapiens, UniProt Q9H2X6); details: 2 h, kinase HIPK2; read-out: % Enzyme Activity (relative to DMSO controls)
T5 construct: purchased Reaction Biology Corporation (assay service)

[6] = target: T6, panel of 370 protein kinases (Homo sapiens, UniProt P54753); details: 2 h, kinase EPHB3; read-out: % Enzyme Activity (relative to DMSO controls)
T6 construct: purchased Reaction Biology Corporation (assay service)

[7] = target: T7, panel of 370 protein kinases (Homo sapiens, UniProt Q9UQB9); details: 2 h, kinase AURORA C; read-out: % Enzyme Activity (relative to DMSO controls)
T7 construct: purchased Reaction Biology Corporation (assay service)
T7 sequence (Q9UQB9 whole entry): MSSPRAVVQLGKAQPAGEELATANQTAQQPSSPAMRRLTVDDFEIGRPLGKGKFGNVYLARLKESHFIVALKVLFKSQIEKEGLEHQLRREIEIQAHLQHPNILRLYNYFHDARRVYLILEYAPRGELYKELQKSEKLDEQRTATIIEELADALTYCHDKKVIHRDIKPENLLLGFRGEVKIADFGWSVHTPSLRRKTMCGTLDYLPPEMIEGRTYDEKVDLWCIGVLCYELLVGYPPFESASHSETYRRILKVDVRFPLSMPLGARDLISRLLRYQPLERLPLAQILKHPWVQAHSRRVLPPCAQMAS

[8] = target: T8, panel of 370 protein kinases (Homo sapiens, UniProt Q56UN5); details: 2 h, kinase YSK4/MAP3K19; read-out: % Enzyme Activity (relative to DMSO controls)
T8 construct: purchased Reaction Biology Corporation (assay service)

[9] = target: T9, panel of 370 protein kinases (Homo sapiens, UniProt Q9UQM7); details: 2 h, kinase CAMK2a; read-out: % Enzyme Activity (relative to DMSO controls)
T9 construct: purchased Reaction Biology Corporation (assay service)

[10] = target: T10, panel of 370 protein kinases (Homo sapiens, UniProt Q92918); details: 2 h, kinase HPK1/MAP4K1; read-out: % Enzyme Activity (relative to DMSO controls)
T10 construct: purchased Reaction Biology Corporation (assay service)

[11] = target: T11, panel of 370 protein kinases (Homo sapiens, UniProt O00506); details: 2 h, kinase STK25/YSK1; read-out: % Enzyme Activity (relative to DMSO controls)
T11 construct: purchased Reaction Biology Corporation (assay service)
T11 sequence (O00506 whole entry): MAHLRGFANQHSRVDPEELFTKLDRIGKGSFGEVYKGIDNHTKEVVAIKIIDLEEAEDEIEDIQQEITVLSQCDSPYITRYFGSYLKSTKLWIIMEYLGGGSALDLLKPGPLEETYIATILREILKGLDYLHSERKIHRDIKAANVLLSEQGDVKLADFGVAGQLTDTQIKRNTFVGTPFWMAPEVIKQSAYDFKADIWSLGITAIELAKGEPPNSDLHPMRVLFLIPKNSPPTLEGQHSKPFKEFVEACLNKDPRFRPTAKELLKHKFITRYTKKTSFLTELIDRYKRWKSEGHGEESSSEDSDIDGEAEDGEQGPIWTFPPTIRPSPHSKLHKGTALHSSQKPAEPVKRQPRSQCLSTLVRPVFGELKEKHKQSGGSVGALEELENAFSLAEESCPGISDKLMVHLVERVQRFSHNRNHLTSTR

[12] = target: T12, panel of 370 protein kinases (Homo sapiens, UniProt P35968); details: 2 h, kinase KDR/VEGFR2; read-out: % Enzyme Activity (relative to DMSO controls)
T12 construct: purchased Reaction Biology Corporation (assay service)
T12 sequence (P35968 20-1356): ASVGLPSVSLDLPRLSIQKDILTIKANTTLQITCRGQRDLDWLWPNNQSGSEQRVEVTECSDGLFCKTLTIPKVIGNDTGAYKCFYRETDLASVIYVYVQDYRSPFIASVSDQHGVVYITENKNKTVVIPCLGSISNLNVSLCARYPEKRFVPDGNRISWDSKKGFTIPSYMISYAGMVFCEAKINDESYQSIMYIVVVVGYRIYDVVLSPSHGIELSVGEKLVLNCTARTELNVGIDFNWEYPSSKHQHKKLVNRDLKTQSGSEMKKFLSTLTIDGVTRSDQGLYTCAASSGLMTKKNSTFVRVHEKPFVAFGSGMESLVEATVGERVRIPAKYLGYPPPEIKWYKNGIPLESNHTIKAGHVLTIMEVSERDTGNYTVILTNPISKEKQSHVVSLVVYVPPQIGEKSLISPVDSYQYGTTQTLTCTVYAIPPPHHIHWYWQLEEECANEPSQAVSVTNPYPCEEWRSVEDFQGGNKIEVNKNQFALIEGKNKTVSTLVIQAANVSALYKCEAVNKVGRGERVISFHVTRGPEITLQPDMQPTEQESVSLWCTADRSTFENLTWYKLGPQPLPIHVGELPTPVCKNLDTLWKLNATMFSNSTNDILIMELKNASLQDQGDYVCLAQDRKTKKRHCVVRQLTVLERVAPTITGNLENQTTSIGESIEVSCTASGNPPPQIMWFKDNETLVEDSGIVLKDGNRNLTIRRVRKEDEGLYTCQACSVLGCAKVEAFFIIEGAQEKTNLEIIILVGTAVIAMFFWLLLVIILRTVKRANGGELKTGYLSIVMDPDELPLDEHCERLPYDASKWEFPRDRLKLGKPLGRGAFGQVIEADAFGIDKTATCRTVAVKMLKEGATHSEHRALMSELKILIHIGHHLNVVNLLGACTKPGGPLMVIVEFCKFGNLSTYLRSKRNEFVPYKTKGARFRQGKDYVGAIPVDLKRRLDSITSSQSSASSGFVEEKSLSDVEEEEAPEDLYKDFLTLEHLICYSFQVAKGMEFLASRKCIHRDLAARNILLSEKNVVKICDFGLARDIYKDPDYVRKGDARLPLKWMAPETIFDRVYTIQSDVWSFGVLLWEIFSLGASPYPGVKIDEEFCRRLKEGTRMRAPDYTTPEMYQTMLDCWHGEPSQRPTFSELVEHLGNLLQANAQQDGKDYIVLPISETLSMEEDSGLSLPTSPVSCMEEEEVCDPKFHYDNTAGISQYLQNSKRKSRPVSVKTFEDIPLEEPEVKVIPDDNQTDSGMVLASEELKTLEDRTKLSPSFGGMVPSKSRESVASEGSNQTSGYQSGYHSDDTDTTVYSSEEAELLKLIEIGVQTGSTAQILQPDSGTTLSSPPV

[13] = target: T13, panel of 370 protein kinases (Homo sapiens, UniProt O95835); details: 2 h, kinase LATS1; read-out: % Enzyme Activity (relative to DMSO controls)
T13 construct: purchased Reaction Biology Corporation (assay service)

[14] = target: T14, panel of 370 protein kinases (Homo sapiens, UniProt P48730); details: 2 h, kinase CK1d; read-out: % Enzyme Activity (relative to DMSO controls)
T14 construct: purchased Reaction Biology Corporation (assay service)
T14 sequence (P48730 whole entry): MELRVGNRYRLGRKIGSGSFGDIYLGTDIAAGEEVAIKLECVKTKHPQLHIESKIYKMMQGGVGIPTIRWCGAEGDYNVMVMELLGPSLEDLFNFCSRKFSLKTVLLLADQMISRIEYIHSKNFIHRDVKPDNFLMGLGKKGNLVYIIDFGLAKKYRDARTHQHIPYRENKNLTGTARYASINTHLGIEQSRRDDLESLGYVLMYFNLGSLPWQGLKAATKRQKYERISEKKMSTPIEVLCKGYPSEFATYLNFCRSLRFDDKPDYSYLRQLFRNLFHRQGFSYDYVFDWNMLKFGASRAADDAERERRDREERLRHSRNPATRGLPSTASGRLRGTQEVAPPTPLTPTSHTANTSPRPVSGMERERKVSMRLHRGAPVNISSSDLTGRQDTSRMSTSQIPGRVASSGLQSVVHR

[15] = target: T15, panel of 370 protein kinases (Homo sapiens, UniProt Q02763); details: 2 h, kinase TIE2/TEK; read-out: % Enzyme Activity (relative to DMSO controls)
T15 construct: purchased Reaction Biology Corporation (assay service)
T15 sequence (Q02763 23-1124): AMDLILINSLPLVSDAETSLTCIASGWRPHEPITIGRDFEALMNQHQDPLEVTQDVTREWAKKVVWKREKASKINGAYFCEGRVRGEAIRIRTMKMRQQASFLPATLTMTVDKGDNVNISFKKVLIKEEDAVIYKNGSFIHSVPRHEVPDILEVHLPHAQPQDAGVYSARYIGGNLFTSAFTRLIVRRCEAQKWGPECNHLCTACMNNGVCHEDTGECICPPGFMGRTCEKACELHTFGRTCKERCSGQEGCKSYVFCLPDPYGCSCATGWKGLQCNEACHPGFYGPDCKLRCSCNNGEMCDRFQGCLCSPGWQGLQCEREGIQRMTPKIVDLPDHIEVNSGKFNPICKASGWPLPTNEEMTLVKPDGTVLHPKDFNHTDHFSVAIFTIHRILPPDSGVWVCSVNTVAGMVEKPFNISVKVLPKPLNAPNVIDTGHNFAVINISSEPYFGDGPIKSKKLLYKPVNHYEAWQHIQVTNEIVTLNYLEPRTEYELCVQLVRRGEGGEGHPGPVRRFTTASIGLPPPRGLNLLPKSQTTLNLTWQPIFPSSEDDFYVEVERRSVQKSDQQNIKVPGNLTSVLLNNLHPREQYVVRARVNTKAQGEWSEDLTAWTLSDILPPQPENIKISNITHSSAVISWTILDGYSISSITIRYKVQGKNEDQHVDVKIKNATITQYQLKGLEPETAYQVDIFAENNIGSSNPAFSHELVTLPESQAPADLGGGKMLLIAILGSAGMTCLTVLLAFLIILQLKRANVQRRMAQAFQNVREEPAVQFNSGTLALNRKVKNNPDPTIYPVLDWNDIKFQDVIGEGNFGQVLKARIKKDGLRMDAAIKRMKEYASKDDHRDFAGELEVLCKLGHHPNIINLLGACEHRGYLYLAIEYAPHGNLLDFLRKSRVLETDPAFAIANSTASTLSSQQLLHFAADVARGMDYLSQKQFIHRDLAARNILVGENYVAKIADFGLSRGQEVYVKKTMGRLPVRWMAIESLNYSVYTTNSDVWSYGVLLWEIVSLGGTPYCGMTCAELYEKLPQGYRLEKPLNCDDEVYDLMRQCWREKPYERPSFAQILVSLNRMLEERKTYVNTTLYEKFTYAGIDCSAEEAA

[16] = target: T16, panel of 370 protein kinases (Homo sapiens, UniProt P06241); details: 2 h, kinase FYN; read-out: % Enzyme Activity (relative to DMSO controls)
T16 construct: purchased Reaction Biology Corporation (assay service)

[17] = target: T17, panel of 370 protein kinases (Homo sapiens, UniProt Q8N752); details: 2 h, kinase CK1a1L; read-out: % Enzyme Activity (relative to DMSO controls)
T17 construct: purchased Reaction Biology Corporation (assay service)

[18] = target: T18, panel of 370 protein kinases (Homo sapiens, UniProt Q9UL54); details: 2 h, kinase TAOK2/TAO1; read-out: % Enzyme Activity (relative to DMSO controls)
T18 construct: purchased Reaction Biology Corporation (assay service)

[19] = target: T19, panel of 370 protein kinases (Homo sapiens, UniProt Q13043); details: kinase MST1/STK4
T19 construct: purchased Reaction Biology Corporation (assay service)
T19 sequence (Q13043 whole entry): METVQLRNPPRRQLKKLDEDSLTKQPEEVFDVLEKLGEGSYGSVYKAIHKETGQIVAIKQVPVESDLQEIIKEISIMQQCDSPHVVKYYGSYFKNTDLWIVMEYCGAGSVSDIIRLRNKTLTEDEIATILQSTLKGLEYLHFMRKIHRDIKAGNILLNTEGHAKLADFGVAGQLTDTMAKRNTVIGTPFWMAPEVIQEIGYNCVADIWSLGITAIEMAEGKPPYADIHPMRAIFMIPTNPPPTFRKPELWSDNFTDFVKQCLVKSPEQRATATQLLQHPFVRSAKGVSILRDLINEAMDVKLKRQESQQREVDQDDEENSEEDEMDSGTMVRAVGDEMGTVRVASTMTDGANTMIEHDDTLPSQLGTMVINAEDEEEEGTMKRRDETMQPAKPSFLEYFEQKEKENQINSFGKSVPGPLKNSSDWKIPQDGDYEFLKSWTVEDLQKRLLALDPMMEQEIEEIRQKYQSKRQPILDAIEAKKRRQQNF

[20] = target: T20, panel of 370 protein kinases (Homo sapiens, UniProt P49674); details: 2 h, kinase CK1epsilon; read-out: % Enzyme Activity (relative to DMSO controls)
T20 construct: purchased Reaction Biology Corporation (assay service)

[21] = target: T21, panel of 370 protein kinases (Homo sapiens, UniProt P16591); details: 2 h, kinase FER; read-out: % Enzyme Activity (relative to DMSO controls)
T21 construct: purchased Reaction Biology Corporation (assay service)

`CCN1CCN(C(=O)c2ccc(Nc3ncc(F)c(-c4ccc5nc(N(C)C)sc5c4)n3)nc2)CC1` [YK-2-69] showed a remaining activity at 1 µM [1] of 95.6%, a remaining activity at 1 µM [2] of 96.7% and a remaining activity at 1 µM [3] of 97.9%. The remaining activity at 1 µM [4] was 98%, the remaining activity at 1 µM [5] was 28.1% and the remaining activity at 1 µM [6] was 112%. For the same molecule, the remaining activity at 1 µM [7] was 94.7%, the remaining activity at 1 µM [8] was 97.8% and the remaining activity at 1 µM [9] was 37.5%. The remaining activity at 1 µM [10] was 104%, the remaining activity at 1 µM [11] was 102% and the remaining activity at 1 µM [12] was 88.6%. For the same molecule, the remaining activity at 1 µM [13] was 95.2%, the remaining activity at 1 µM [14] was 104% and the remaining activity at 1 µM [15] was 87.6%. The remaining activity at 1 µM [16] was 104%, the remaining activity at 1 µM [17] was 103% and the remaining activity at 1 µM [18] was 97%. The “% Enzyme Activity (relative to DMSO controls)” value [19] was 107.26% and 103.88%, the remaining activity at 1 µM [20] was 111% and the remaining activity at 1 µM [21] was 106%.
